This is an account of results in patent publication US11339136B2 (Novartis AG, priority 2016, dated 2022).

Each structure is given as a SMILES string.

The IC50 is the point on the concentration scale where inhibition reaches its midpoint. A lower IC50 goes with inhibition by little substance.

One experiment deals with T1, hNLRP3 (Homo sapiens, UniProt Q96P20).
T1 construct: THP-1 cells were purchased from the American Type Culture Collection; host or cells: THP-1 cells, PMA-differentiated
T1 sequence (Q96P20 whole entry): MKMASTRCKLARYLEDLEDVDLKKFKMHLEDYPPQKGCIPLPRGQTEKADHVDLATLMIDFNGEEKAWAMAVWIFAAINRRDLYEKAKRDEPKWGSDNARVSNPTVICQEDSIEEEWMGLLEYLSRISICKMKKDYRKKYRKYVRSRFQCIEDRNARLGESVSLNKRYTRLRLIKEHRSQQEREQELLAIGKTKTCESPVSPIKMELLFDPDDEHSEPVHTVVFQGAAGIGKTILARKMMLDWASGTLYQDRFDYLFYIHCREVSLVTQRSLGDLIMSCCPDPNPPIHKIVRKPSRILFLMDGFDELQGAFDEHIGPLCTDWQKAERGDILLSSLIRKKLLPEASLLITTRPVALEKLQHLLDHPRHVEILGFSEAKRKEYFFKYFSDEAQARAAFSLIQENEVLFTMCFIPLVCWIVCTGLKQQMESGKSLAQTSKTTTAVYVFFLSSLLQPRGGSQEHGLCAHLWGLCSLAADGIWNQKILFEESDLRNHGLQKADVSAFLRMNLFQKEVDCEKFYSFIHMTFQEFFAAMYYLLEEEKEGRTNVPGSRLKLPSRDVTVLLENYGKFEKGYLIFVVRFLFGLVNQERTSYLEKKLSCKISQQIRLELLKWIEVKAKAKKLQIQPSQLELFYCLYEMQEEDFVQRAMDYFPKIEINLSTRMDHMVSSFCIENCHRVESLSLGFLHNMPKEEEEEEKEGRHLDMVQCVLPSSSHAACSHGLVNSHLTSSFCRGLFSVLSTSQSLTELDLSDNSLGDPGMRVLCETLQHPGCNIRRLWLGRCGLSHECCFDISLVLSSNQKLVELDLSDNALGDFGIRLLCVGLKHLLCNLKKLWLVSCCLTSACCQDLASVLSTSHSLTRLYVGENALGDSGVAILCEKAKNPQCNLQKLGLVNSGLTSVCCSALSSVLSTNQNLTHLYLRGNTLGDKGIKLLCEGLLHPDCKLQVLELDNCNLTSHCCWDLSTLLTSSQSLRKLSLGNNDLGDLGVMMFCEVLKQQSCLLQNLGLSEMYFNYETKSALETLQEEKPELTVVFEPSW
The experiment can be described thus: IL-1β production in PMA-differentiated THP-1 cells stimulated with gramicidin. The following applies: gramicidin 5 μM, IL-1β in supernatant, Table 1. The class given is cell-based. Put shortly: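 THP-1 cells differentiated with PMA (10 μg/ml, 24 h, or 20 ng/ml, 16-18 h), replated in 2% FBS RPMI and preincubated with compound for 1 h before 5 μM gramicidin for 2 h. Supernatant IL-1β measured by ELISA (1% DMSO) or HTRF (0.38% DMSO).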
As for `CC(C)c1cc(C(N)=O)cc(C(C)C)c1NC(=O)NS(=O)(=O)c1cc(C(C)(C)O)co1` [Compound 116, 4-(3-(4-(2-hydroxypropan-2-yl)furan-2-ylsulfonyl)ureido)-3,5-diisopropylbenz-amide], the IC50 was 15 to 35 µM.

Still in this experiment, the particulars now being: gramicidin 5 μM, IL-1β in supernatant, Table 2.
Turning to `CC(C)c1cc(C#N)cc(C(C)C)c1NC(=O)NS(=O)(=O)c1ncc(C(C)(C)O)s1` [Compound 226, N-(4-cyano-2,6-diisopropylphenyl-carbamoyl)-5-(2-hydroxypropan-2-yl)thiazole-2-sulfonamide], the IC50 was less than 1 µM. Same read-out and setting: for `CC(C)c1ccc(F)c(C(C)C)c1NC(=O)NS(=O)(=O)c1cc(C(C)(C)O)c(Cl)s1` [Compound 250, 5-chloro-N-(3-fluoro-2,6-diisopropylphenylcarbamoyl)-4-(2-hydroxypropan-2-yl)thiophene-2-sulfonamide] the value was 1 to 5 µM; for `CC(C)c1ccc(C#N)c(C(C)C)c1NC(=O)NS(=O)(=O)c1ncc(C(C)(C)O)s1` [Compound 263, N-(3-cyano-2,6-diisopropylphenylcarbamoyl)-5-(2-hydroxypropan-2-yl) thiazole-2-sulfonamide], 1 to 5 µM; for `CC(C)(O)c1cnc(S(=O)(=O)NC(=O)Nc2c3c(c(F)c4c2CCC4)CCC3)s1` [Compound 209, N-(8-fluoro-1,2,3,5,6,7-hexahydros-indacen-4-ylcarbamoyl)-5-(2-hydroxypropan-2-yl)thiazole-2-sulfonamide], less than 1 µM. On the same count and under the same terms, to `O=C(Nc1c2c(cc3c1CCC3)CCC2)NS(=O)(=O)c1ccc(C2(O)CC2)s1` [Compound 202, N-(1,2,3,5,6,7-hexahydros-indacen-4-ylcarbamoyl)-5-(1-hydroxycyclopropyl) thiophene-2-sulfonamide] belongs less than 1 µM.

For the molecule `CCc1cc(Cl)cc(CC)c1NC(=O)NS(=O)(=O)c1cc(C(C)(C)O)cs1` [Compound 171, N-(4-chloro-2,6-diethylphenylcarbamoyl)-4-(2-hydroxypropan-2-yl) thiophene-2-sulfonamide], the IC50 is 1 to 5 µM. Still for that read-out and setting: to `CC(C)c1ccc(Cl)c(C(C)C)c1NC(=O)NS(=O)(=O)c1ncc(C(C)(C)O)s1` [Compound 179, N-(3-chloro-2,6-diisopropylphenylcarbamoyl)-5-(2-hydroxypropan-2-yl)thiazole-2-sulfonamide] belongs 1 to 5 µM. For `Cc1nc(S(=O)(=O)NC(=O)Nc2c(C(C)C)ccc(Cl)c2C(C)C)sc1C(C)(C)O` [Compound 149, N-(3-chloro-2,6-diisopropylphenylcarbamoyl)-5-(2-hydroxypropan-2-yl)-4-methylthiazole-2-sulfonamide], the IC50 fell in the range of 15 to 35 µM. Still for that read-out and setting: for `CC(C)(O)c1cnc(S(=O)(=O)NC(=O)Nc2c3c(cc4c2CCC4)CCC3)s1` [Compound 233, N-(1,2,3,5,6,7-hexahydros-indacen-4-ylcarbamoyl)-5-(2-hydroxypropan-2-yl)thiazole-2-sulfonamide] the value was less than 1 µM; for `CC(C)c1ccc(Cl)c(C(C)C)c1NC(=O)NS(=O)(=O)c1cc(C(C)(C)O)cs1` [Compound 180, N-(3-chloro-2,6-diisopropylphenylcarbamoyl)-4-(2-hydroxypropan-2-yl)thiophene-2-sulfonamide], less than 1 µM.

`CC(C)c1ccc(Cl)c(C(C)C)c1NC(=O)NS(=O)(=O)c1nc(C(C)(C)O)cs1` [Compound 144, N-(3-chloro-2,6-diisopropylphenylcarbamoyl)-4-(2-hydroxypropan-2-yl) thiazole-2-sulfonamide] gave an IC50 of 1 to 5 µM.

As to `CCc1cc(Cl)cc(CC)c1NC(=O)NS(=O)(=O)c1ncc(C(C)(C)O)s1` [Compound 170, N-(4-chloro-2,6-diethylphenylcarbamoyl)-5-(2-hydroxypropan-2-yl) thiazole-2-sulfonamide], the IC50 was in the range of 5 to 15 µM. `CC(C)c1ccc(Cl)c(C(C)C)c1NC(=O)NS(=O)(=O)c1cc(C2(O)CC2)co1` [Compound 181, N-(3-chloro-2,6-diisopropylphenylcarbamoyl)-4-(1-hydroxycyclopropyl) furan-2-sulfonamide] registered an IC50 of less than 1 µM.
